Biological target: T1, human lck SH2 domain (Homo sapiens, UniProt P06239)
T1 construct: Cloning and expression of human lck SH2 domain containing tags and an enterokinase proteolytic cleavage site; made in house; host or cells: E. coli AR120
Assay: SH2 domain / pY peptide binding assay (ELISA-based, 96 well plate), lck SH2
Conditions: Ki calculated from IC50 by the expanded equation; Table II
Procedure: The inhibitory activity of compounds at the different human SH2 domains was determined in vitro using SH2 domains expressed as fusion proteins in E. coli. The SH2 domains used herein were the human forms of the src SH2 domain, Grb2 SH2 domain, lck SH2 domain, fyn SH2 domain, SH-PTP2 SH2 domain, p85 SH2 domain and hcp SH2 domain.
The fusion proteins containing the src, lck and hcp SH2 domains were expressed as the general sequence: DET1-DET2-spacer-ek-SH2, where DETI, DET2, spacer, ek and SH2 are as described below. DET1 ("defined epitope tag 1") (SEQ ID NO: 1) is an 11 amino acid sequence found in the Human Immunodeficiency Virus Type 1 (HIV-1) envelope protein gp120 (or gp160). Monoclonal antibodies to various epitopes of HIV-1 gp120 (or gp160) are known in the art, see, for example U.S. Patent 5,166,050. One preferred example is monoclonal antibody 178.1 (see, e.g., Thiriart et al., J. Immunol., 143:1832-1836 (1989)), which was prepared by immunization of mice with a yeast-expressed HIV-1 gp160 molecule from strain BH10 (Ratner et al., Nature, 313:277-284 (1985)). This tag was used for detection of expression (by Western blot), for purification of the protein (by affinity chromatography), and for configuring assays in which the fusion protein was captured or immobilized using the 178.1 antibody. DET2 is a hexahistidine sequence tag (SEQ ID NO: 2) which binds to nickel-containing resins and was used for purification purposes. Spacer (SEQ ID NO: 3) was utilized to design a BamH1 restriction site at the indicated position of the construct. The term -ekrefers to a recognition sequence (SEQ ID NO: 4) for the enterokinase protease which provides for the optional removal of the tags from the SH2 domain, thus producing an SH2 domain that contains no extraneous amino acids. SH2 domains which contain no extraneous amino acids are preferable to tagged protein for crystallography studies. SH2 refers to the SH2 domains of different proteins.
Cloning and expression of human lck SH2 domain containing tags and an enterokinase proteolytic cleavage site (DET1-DET2-spacer-ek-lck SH2).
A DNA sequence encoding protein ek-lck SH2 was PCR amplified from a cDNA clone containing the human lck gene (Genbank accession number M36881) using the following primers: [formula]
The PCR product was digested with BamHI and XbaI, followed by isolation of the digested fragment on an agarose gel. The fragment was ligated into BamHI-XbaI-digested expression vector containing the tagged chicken src gene DET1-DET2-spacer-SH2 described in Procedure 1 above. In that vector, the BamHI site is located in between the coding regions for DET2 and SH2, and the XbaI site is located after the 3' end of the SH2 coding region. Thus, the ek-lck SH2 sequence replaced the src SH2 sequence in the above vector. The ligation reaction was used to transform E. coli MM294cI^+. The construct containing […] was confirmed by DNA sequencing (SEQ ID NO: 6) and induced in E. coli strain AR120 as described in Procedure 1 above. A Coomassie-Blue-stained, Western-blot-positive induced protein band with an apparent molecular weight of 17,000 was observed after nalidixic acid induction.
Cells were lysed at neutral pH by sonication in the presance of lysozyme. After centrifugation, the soluble extract was chromatographed on a Ni^++NTA column. After washing the column with equilibration buffer (Tris buffer pH 8 containing 0.5 M NaCl) and the same buffer containing 15 mM imidazole, the protein was eluted in highly purified form with 25 mM imidazole in equilibration buffer.
The binding assays for the SH2 domains and pY peptides were performed in an ELISA-based 96 well plate assay. In Millipore 96 well filter plates, hydrophilic Durapore® (pore size 0.65um Cat. No. MADVN6550), was added 2 ul (50% suspension) of Protein-G Sepharose (available from Pharmacia of N.J. Cat. No. 17-0618-01) and either 2 ul of 2 mg/ml of MAB178. […]

T1 sequence (P06239 127-224 limits assumed): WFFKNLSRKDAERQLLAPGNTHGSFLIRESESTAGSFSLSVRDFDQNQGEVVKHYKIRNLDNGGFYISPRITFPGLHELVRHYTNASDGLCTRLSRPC

- Ki: 50 µM
Compound: CCCCCCNC(=O)[C@H]1CC[C@H](CNC(=O)c2ccc(C(=O)c3ccc(C(=O)O)cc3)cc2)CC1 [Compound 6, 4-carboxy-benzophenone-4-carboxamido-trans-4-methyl-cyclohexyl-N-hexyl carboxamide]
